Reference: paper PMC6902048, “UGT85A84 Catalyzes the Glycosylation of Aromatic Monoterpenes in Osmanthus fragrans Lour. Flowers” (Frontiers in Plant Science, 2019)
Several values for one entry are separate records, joined by “and”; a condition that tells them apart may be missing. Identical values can stand only once. One block for each molecule: values may come before it.

Columns and labels:
[1] = system: UGT85A84; assay: OfUGT85A84 enzyme assay with purified recombinant protein (LC-MS, Michaelis-Menten fitting); assay type: biochemical, Osmanthus fragrans; conditions: for Glycosylated products formed with the sugar donor (LC-MS): 0.5 mM sugar donor with 0.5 mM linalool or linalool oxide, 1 h or 16 h incubation at 37°C
Description: The full-length UGT85A84 ORF was amplified and cloned into the pET21b and pET15b expression vectors (Novagen) using the primers listed in Table S2 . The two plasmids were co-transformed into Escherichia. coli BL21 (DE3) pLysS cells (Promega, Madison, WI, USA). The co-transformed cells were cultured in lysogeny broth medium supplemented with 100 µg/ml ampicillin at 37°C until OD600 approached 1.0–1.2. The temperature was then shifted to 16°C, and the cells were incubated with 0.2 mM isopropyl β-D-1-thiogalactopyranoside for 16 h. Subsequently, the cells were harvested by centrifugation, resuspended in lysis buffer (pH 8.0) containing 25 mM Tris-HCl and 150 mM NaCl and lysed by a JN-02 homogenizer. […] The eluted protein was further purified by anion-exchange chromatography (Source 15Q 10/100, GE Healthcare) with a linear NaCl gradient in the buffer (pH 8.0) containing 25mM Tris-HCl, 1M NaCl, and 2mM dithiothreitol. Then, the elution peak was concentrated to 1 ml and subjected to size-exclusion chromatography (Superdex-200 Increase 10/300, GE Healthcare) in the buffer (pH 8.0) containing 25mM Tris-HCl, 150mM NaCl, and 5mM dithiothreitol (DTT). The purity of the protein was analyzed by sodium dodecyl sulfate polyacrylamide gel electrophoresis (SDS-PAGE) and the protein was quantified using a NanoDrop 2000 spectrophotometer (Thermo Scientific, USA). Enzymatic activity assays were carried out according to the description by [Shoji et al. (2015)] with modification. […] After incubation of the mixture at 37°C for 16 h, the reaction was terminated by the addition of 1 µl of 24% trichloroacetic acid (TCA). Except for the concentrations of substrates, the same assay conditions were used for measuring the UGT85A84 kinetic parameters. […] All the reactions were incubated at 37°C for 1 h and repeated in triplicate. The reaction products were subjected to LC-MS analysis. The apparent K m and k cat values for each aglycone and sugar donor were determined by Michaelis-Menten fitting in OriginPro 9.1 software. LC-MS analysis was performed in the Thermo Scientific™ UltiMate™ 3000RS system. The separation was conducted on a Thermo Scientific™ Syncronis C18 column (100*2.1 mm, 1.7µm) at 40°C. Mobile phases consisted of phase A referring to water with 0.1% formic acid and phase B referring to methanol with 0.1% formic acid. […] The samples were eluted with the following linear gradient: 0–1min, 2% B; 1–5min, 2-95% B; 5–7min, 95% B; 7–7.1, 95–2% B; 7.1–9, 2% B. The MS analysis was performed on a Thermo Scientific™ Q Exactive Plus hybrid quadrupole-Orbitrap benchtop high-resolution mass spectrometer equipped with heated electrospray ionization. […] Identification of target compounds was carried out using Data-Dependent Acquisition (DDA). The HCD collision energy was set at NCE 20 for negative mode and was set at NCE 30 50 80 for positive mode. Quantification was performed in the full scan negative mode.

[2] = system: CsGT1; set-up: method as in Shoji et al., 2015; conditions: geraniol = 100%; ref Shoji et al., 2015; cited from earlier work
[3] = system: PpUGT85A2; set-up: method as in Wu et al., 2018; conditions: Prunus persica UGT; ref Wu et al., 2018; cited from earlier work
[4] = system: UGT85A84; assay: Transient over-expression of OfUGTs in Nicotiana benthamiana leaves with aglycone infiltration, glycosides by GC-MS; assay type: in vivo, Osmanthus fragrans; conditions: N. benthamiana leaves, 50 µM linalool and 200 µM linalool oxides infiltrated, 4 h; GC-MS after β-glucosidase
Description: Transient expression experiments with Nicotiana benthamiana leaves were performed as described by [Zeng et al. (2016)]. […] Five days after the inoculation, the leaves were infiltrated with different aglycone solutions (50 µM linalool and 200 µM linalool oxides in 0.5 M MES + 1 M MgCl2). Four hours after infiltration, the leaves were detached and frozen at –80°C for glycoside determination ([Yar-Khing et al., 2014]). Glycoside extraction coupled with GC-MS was performed to quantify the glycoside contents according to the previously described methods ([Zheng et al., 2017]).
The experiments of transient over-expression coupled with the substrate injection in N. benthamiana leaves were conducted to investigate the glycosides produced by candidate OfUGTs in planta. The leaves were infiltrated with Super1300-OfUGT or a control construct in the presence of linalool and its oxides. The glycosides were then extracted and purified after incubation. Subsequently, GC-MS analysis calculated the glycoside contents by quantifying the corresponding aglycones released from the glycosides.
The N. benthamiana leaves were infiltrated with a control construct (S1300-GUS) or S1300-OfUGTs in the presence of linalool and its oxides. […] Different letters indicate significant difference as determined by one-way ANOVA followed by LSD t-test (P 0.05).

[5] = system: UGTs from Actinidia deliciosa; set-up: method as in Yar-Khing et al., 2014; conditions: Actinidia deliciosa UGT; ref Yar-Khing et al., 2014; cited from earlier work
[6] = system: UGTs from Vitis vinifera; set-up: method as in Friedericke et al., 2014a; Friedericke et al., 2014b; conditions: several Vitis vinifera UGTs, enzymes not named, ref Friedericke et al., 2014a, 2014b; cited from earlier work
[7] = system: UGTs from Camellia sinensis; set-up: method as in Shoji et al., 2015; conditions: enzymes not named, ref Shoji et al., 2015; cited from earlier work
[8] = aglycone as varied substrate, fixed UDP-Glc 0.5 mM
[9] = aglycone as varied substrate, fixed UDP-Glc 0.5 mM, 37°C, 1 h

Glycosylated products formed with the sugar donor (LC-MS) [1]: No products were detected
SMILES: O=c1ccn([C@@H]2O[C@H](COP(=O)(O)OP(=O)(O)O[C@H]3OC[C@@H](O)[C@H](O)[C@H]3O)[C@@H](O)[C@H]2O)c(=O)[nH]1 [UDP-Xyl, UDP-xylose]

Glycosylated products formed with the sugar donor (LC-MS) [1]: No products were detected
SMILES: C[C@@H]1O[C@H](OP(=O)(O)OP(=O)(O)OC[C@H]2O[C@@H](n3ccc(=O)[nH]c3=O)[C@H](O)[C@@H]2O)[C@H](O)[C@H](O)[C@H]1O [UDP-Rha, UDP-rhamnose]

k cat/K m [1, 8]: 718000 M⁻¹ s⁻¹
k cat [1, 9]: 0.09 S ^-1
Km ([1]; aglycone as varied substrate, fixed UDP-Glc 0.5 mM, 37°C, 1 h, mean and SEM, n = 3): 136 µM
SMILES: C=CC(C)(O)CCC=C(C)C (stereo not drawn) [linalool]
Relative activity of CsGT1 towards substrate [2]: 1.4%
Km [3]: 463 ± 80 µM
Glycoside of the injected aglycone in UGT85A84-infiltrated leaves versus control [4]: no significant increase

SMILES: CCCCCC(O)CC (stereo not drawn) [Octan-3-ol]
Km [5]: 66.6 ± 16.2 µM

k cat/K m [1, 8]: 1.0494e+07 M⁻¹ s⁻¹
k cat [1, 9]: 2.12 S ^-1
SMILES: C=CC1(C)CCC(C(C)(C)O)O1 (stereo not drawn) [linalool oxide]
Glycoside of the injected aglycone in UGT85A84-infiltrated leaves versus control [4]: remarkable increase

SMILES: OCc1ccccc1 [benzyl alcohol]
Relative activity of CsGT1 towards substrate [2]: 48%

SMILES: CC/C=C\CCO [(Z)-3-hexenol]
Relative activity of CsGT1 towards substrate [2]: 62%

SMILES: C=CCc1ccc(O)c(OC)c1 [eugenol]
Relative activity of CsGT1 towards substrate [2]: 84%

SMILES: CC(C)=CCCC(C)CCO (stereo not drawn) [Citronellol]
Km [6]: 433 µM and 306 µM and 445 µM

SMILES: C=CC(C)(O)CC/C=C(\C)CO (stereo not drawn) [8-Hydroxylinalool]
Km [6]: 33 ± 1.8 µM

SMILES: CC(C)=CCC/C(C)=C/CO[C@@H]1O[C@H](CO)[C@@H](O)[C@H](O)[C@H]1O [Geranyl β-D-glucopyranoside]
Km [7]: 78.1 ± 19.6 µM

SMILES: CC(C)=CCC/C(C)=C/CO [geraniol]
Relative activity of CsGT1 towards substrate [2]: 100%
Km [7]: 44.2 ± 3 µM
Km [5]: 76.2 ± 11.1 µM

SMILES: CCCCCCO [Hexanol]
Km [5]: 117 ± 28.1 µM

SMILES: OCCc1ccccc1 [2-PE, 2-phenylethanol]
Relative activity of CsGT1 towards substrate [2]: 9.2%

SMILES: CC(C)=CCC[C@H](C)CCO [S-Citronellol]
Km [6]: 55 ± 1.3 µM
